Broadly, the Ki is a dissociation constant, usually derived from enzyme kinetics or from competition with a known ligand. Low values mean higher affinity, high ones lower affinity. As a reminder, the inhibition is the change of the read-out against control, counted positive when it falls.

Assay [1] concerns the target Ketol-acid reductoisomerase, chloroplastic (Oryza sativa subsp. japonica, UniProt Q65XK0). The experiment in a line: Inhibition of Oryza sativa KARI (rice).
Assay [2] relates to Echinochloa crus-galli. The experiment in a line: Herbicidal activity against Echinochloa crus-galli (barnyard grass) assessed as inhibition at 10 ug/ml by barnyardgrass cup test. The assay is classed as functional.
Assay [3] concerns Brassica napus. In words: Herbicidal activity against Brassica napus (oilseed rape) assessed as inhibition at 100 ug/ml by rape toot test. The assay is classed as functional.
In assay [4] the test system is Echinochloa crus-galli. In words: Herbicidal activity against Echinochloa crus-galli (barnyard grass) assessed as inhibition at 100 ug/ml by barnyardgrass cup test. The assay is classed as functional.
The subject of assay [5] is Brassica napus. The experiment in a line: Herbicidal activity against Brassica napus (oilseed rape) assessed as inhibition at 10 ug/ml by rape toot test. The assay is classed as functional.
Assay [6] has as its target T1, Ketol-acid reductoisomerase (NADP(+)) (Escherichia coli (strain K12), UniProt P05793).
T1 sequence (P05793 whole entry): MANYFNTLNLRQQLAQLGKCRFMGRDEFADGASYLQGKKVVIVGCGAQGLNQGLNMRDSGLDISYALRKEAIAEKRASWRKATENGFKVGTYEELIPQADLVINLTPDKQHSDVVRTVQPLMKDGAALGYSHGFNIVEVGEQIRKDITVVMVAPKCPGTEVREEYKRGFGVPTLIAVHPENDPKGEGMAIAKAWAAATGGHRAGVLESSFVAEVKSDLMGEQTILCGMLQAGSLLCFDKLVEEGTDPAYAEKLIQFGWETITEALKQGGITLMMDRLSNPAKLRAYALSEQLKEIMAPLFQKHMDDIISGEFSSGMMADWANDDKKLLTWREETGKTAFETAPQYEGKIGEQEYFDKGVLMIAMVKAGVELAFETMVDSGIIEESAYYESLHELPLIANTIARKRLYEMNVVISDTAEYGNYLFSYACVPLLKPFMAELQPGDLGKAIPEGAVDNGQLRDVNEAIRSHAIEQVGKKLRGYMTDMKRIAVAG
In words: Inhibition of Escherichia coli KARI.

Where a name gives a salt, the structure may show the parent alone. Activity calls are given as the source filed them. The calls are words filed in the database; no cut-off is given here.

Sequence of Ketol-acid reductoisomerase, chloroplastic (Q65XK0 whole entry): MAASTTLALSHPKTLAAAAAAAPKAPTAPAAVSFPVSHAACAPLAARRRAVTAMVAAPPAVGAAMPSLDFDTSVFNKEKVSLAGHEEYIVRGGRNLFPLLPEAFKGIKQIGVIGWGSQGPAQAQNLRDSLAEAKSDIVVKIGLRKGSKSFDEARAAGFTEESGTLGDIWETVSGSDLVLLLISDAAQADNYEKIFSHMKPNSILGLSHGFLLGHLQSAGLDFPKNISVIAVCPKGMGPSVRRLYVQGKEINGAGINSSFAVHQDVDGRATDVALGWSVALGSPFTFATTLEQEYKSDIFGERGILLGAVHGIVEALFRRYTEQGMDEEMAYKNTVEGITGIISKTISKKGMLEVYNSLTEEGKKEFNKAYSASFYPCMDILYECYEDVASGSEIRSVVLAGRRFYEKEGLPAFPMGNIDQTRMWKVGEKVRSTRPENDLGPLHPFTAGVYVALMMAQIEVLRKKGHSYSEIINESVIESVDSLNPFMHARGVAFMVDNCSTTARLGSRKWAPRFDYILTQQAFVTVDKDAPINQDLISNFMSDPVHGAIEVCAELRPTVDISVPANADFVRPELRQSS

With `N=C(N)c1ccc(OCc2ccccc2)cc1` [4-(BENZYLOXY)BENZIMIDAMIDE HYDROCHLORIDE], the inhibitory constant (Ki) in assay [1] was greater than 1380 µM.
Compound `N=C(N)c1ccc(OCc2cccc(Cl)c2)cc1` showed an inhibition constant (Ki) in assay [1] of 213 µM. The figures for the inhibition at 10 µg/mL with Echinochloa crus-galli [2] and with Brassica napus [5] were 21.5% and 31.9%, respectively. Further, the inhibition at 100 µg/mL in the assay with Brassica napus [3] worked out at 95.2%; in the assay on Echinochloa crus-galli [4], 56.8%.
Take `C=CCOc1ccc(C(=N)N)cc1` [4-(ALLYLOXY)BENZIMIDAMIDE HYDROCHLORIDE]: the Ki in assay [1] is greater than 1710 µM.
Still for that read-out and setting: then `CCCOc1ccc(C(=N)N)cc1` [4-PROPOXYBENZIMIDAMIDE HYDROCHLORIDE], with greater than 1670 µM.
The same measure, in the same setting: next, `CC(C)Oc1ccc(C(=N)N)cc1` [4-ISOPROPOXYBENZIMIDAMIDE HYDROCHLORIDE]: greater than 1670 µM.
As to `COc1ccc(C(=N)N)cc1` [4-METHOXYBENZIMIDAMIDE HYDROCHLORIDE], the Ki in assay [1] was greater than 2080 µM. Besides, the inhibition at 10 µg/mL in the assay on Echinochloa crus-galli [2] worked out at 16.2%; in the assay with Brassica napus [5], 6.9%. The figures for the inhibition at 100 µg/mL with Brassica napus [3] and in the assay on Echinochloa crus-galli [4] were 48.5% and 18.3%, respectively.
Regarding `CCCCCOc1ccc(C(=N)N)cc1` [4-(PENTYLOXY)BENZIMIDAMIDE HYDROCHLORIDE], in assay [1], affinity was put at a Ki of 1360 µM. That is a millimolar value.
The compound `N=C(N)c1ccc(OCc2ccc(Cl)cc2Cl)cc1` yielded an inhibition constant (Ki) in assay [1] of 142 µM. Moreover, the results for the inhibition at 10 µg/mL in the assay with Echinochloa crus-galli [2] and with Brassica napus [5] were 21.8% and 33.7%, respectively. Further, the inhibition at 100 µg/mL in the assay on Brassica napus [3] was 95.6%; in the assay on Echinochloa crus-galli [4], 62.8%.
Taken in the same sequence, the figures for `CCCCCCOc1ccc(C(=N)N)cc1` [4-(HEXYLOXY)BENZIMIDAMIDE HYDROCHLORIDE] were 190 µM, 5.3%, 20.4%, 94% and 52.1%.
As to `CCCCOc1ccc(C(=N)N)cc1` [4-BUTOXYBENZIMIDAMIDE HYDROCHLORIDE], the Ki in assay [1] was found to be 3530 µM.
As for `N=C(N)c1ccc(OCCCCCOc2ccc(C(=N)N)cc2)cc1` [PENTAMIDINE ISETHIONATE], the Ki in assay [1] turned out to be 350 µM; in assay [6], 382 µM. For the same compound, the inhibition at 10 µg/mL in the assay with Echinochloa crus-galli [2] came out at 12.6%; in the assay on Brassica napus [5], 22.9%. Besides, the figures for the inhibition at 100 µg/mL in the assay on Brassica napus [3] and in the assay on Echinochloa crus-galli [4] were 90.9% and 59.6%, respectively.
Regarding `N=C(N)c1ccc(OCc2ccccc2F)cc1`, the affinity in assay [1], expressed as Ki, was 965 µM.
On the same count and under the same terms, then `N=C(N)c1ccc(OCc2ccc(Cl)cc2)cc1`, with 411 µM; and `N=C(N)c1ccc(OCc2ccccn2)cc1`, with greater than 649 µM.
In the case of `CCCCCCCOc1ccc(C(=N)N)cc1` [4-(HEPTYLOXY)BENZIMIDAMIDE HYDROCHLORIDE], affinity in assay [1] was put at a Ki of 61 µM. Further, the results for the inhibition at 10 µg/mL in the assay with Echinochloa crus-galli [2] and in the assay on Brassica napus [5] were 20.1% and 30.1%, respectively. Besides, the inhibition at 100 µg/mL with Brassica napus [3] is 96.3%; in the assay with Echinochloa crus-galli [4], 53%.
`CCOc1ccc(C(=N)N)cc1` [4-ETHOXYBENZIMIDAMIDE HYDROCHLORIDE] gave an inhibition constant Ki in assay [1] greater than 1900 µM. The inhibition result in the assay on Echinochloa crus-galli [2] is “inactive”. The results for the inhibition at 100 µg/mL in the assay with Brassica napus [3] and in the assay with Echinochloa crus-galli [4] were 57.1% and 24.4%, respectively. Moreover, the inhibition at 10 µg/mL in the assay with Brassica napus [5] is 18.5%.

Values taken from ChEMBL document CHEMBL3046671, “Molecular design, synthesis and biological activities of amidines as new ketol-acid reductoisomerase inhibitors” (Chin Chem Lett, 2008).
